From US7247295B2, “Use of 1,2-decandiol for combating germs causing body odor” (DRAGOCO Gerberding & Co. AG, priority 2001, dated 2007)
Converted amounts (≈) assume the structure as drawn.

Experiments:
Format in all cases: cell-based
[1] = test system: Brevibacterium epidermidis ATCC 35514; assay: MIC determination, agar dilution method (DIN 58 940/58 944); conditions: ATCC35514, Mueller-Hinton agar, aerobic, 18 h at 36° C., pure substance
Method: (§1) To prepare various test concentrations 2.6 ml of a 3.3% stock solution (3.3 g 1,2-decanediol or comparison substance in 100 ml ethanol (96% in H2O; Merck, Cat. no. 1.00971)) was used at the starting material in each case. Further test concentrations (diluted sample) in the form of a geometric dilution series were prepared by progressive 2:1 dilution with ethanol (96%; Merck, Cat. no. 1.00971). Determination of the antimicrobial action of 1,2-decanediol (or of a comparison substance) was carried out with the aid of the agar dilution method based on DIN 58 940/ICS and DIN 58 944/ICS. Petri dishes 5.5 cm in diameter were filled with 8.7 ml freshly prepared Mueller-Hinton agar (Merck, Cat. no. 1.05437 or Wilkins-Chalgren agar boillon (sic), Oxoid, Cat. no. CM 643, supplemented with 10 g agar-agar/litre) kept liquid at 50° C., to which in each case 0.3 ml of the particular sample, that is to say 3.3% (V/V) based on the total volume of agar and sample, was added. By means of this further dilution of the undiluted stock solution and of the already diluted samples with the test agar (0.3 ml of the stock solution or of the corresponding diluted sample+8.7 ml agar) 30-fold lower end concentrations were prepared in each case (when using the stock solution an initial concentration of 1,100 ppm results). The concentrations given below are based on the pure substance and have been converted to ppm. 2 agar plates were cast per test concentration and nutrient medium. After solidification and drying (about 1 h at 37° C.), the test plates were inoculated in point form with, in each case, 1 μl of the test organism suspensions listed below. To check purity and identity, the aerobically growing bacteria Brevibacterium epidermidis, Corynebacterium xerosis; and Staphylococcus epidermidis were cultured on Columbia blood agar (BioMérieux, Cat. no. 43049). Further details on the test organisms can be taken from Table 2. [table] The preparation of the test organism suspensions of the test organisms for Brevibacterium epidermidis, Corynebacterium xerosis, and Staphylococcus epidermidis was carried out by incubation of Mueller-Hinton bouillon (Merck, Cat. no. 1.10293), which had been inoculated with a few individual colonies of the particular test organisms, at 36° C. After a distinct turbidity had been achieved, sterile nutrient bouillon was added to the suspensions in such an amount that the turbidity thereof corresponded to McFarland Standard 0.5 (approx. 10^8 CFU/ml). The inoculated plates were incubated under the conditions given in Table 3 and were then assessed. The MIC (minimum inhibitory concentration) was considered to be the lowest active compound concentration with which there is macroscopically no growth. Minimum, barely visible growth or a few small individual colonies were assessed as inhibition. [table] Suspensions of the microorganisms described above were incubated in accordance with the general test conditions described under 1. and the MIC values of 1,2-decanediol were determined (see Table 4). For reference purposes the MIC values for 1,2-octanediol were also determined.

[2] = test system: Corynebacterium xerosis ATCC 7711; assay: as above; conditions: ATCC7711, Mueller-Hinton agar, aerobic, 18 h at 36° C., pure substance
Method: as §1

[3] = test system: Staphylococcus epidermidis ATCC 12228; assay: as above; conditions: ATCC12228, Mueller-Hinton agar, aerobic, 18 h at 36° C., pure substance
Method: as §1

[4] = test system: Corynebacterium xerosis (C. xerosis 7711); assay: Growth curve, suspension test; conditions: concentration 0.3% in AC medium; incubated 20, 60 and 180 min; compared with 1,2-octanediol and farnesol
Method: • AC medium: 37 g brain heart infusion, 5 g glucose, 1 ml Tween 80, made up to 1 l with H2O. Test Substances: • 1,2-Octanediol (0.3%) • 1,2-Decanediol (0.3%) • Farnesol (0.3%) Control: • AC medium without active compound Test Solutions: • Relevant test substance in AC medium Suspension Test (see FIG. 1) 60 ml AC medium were inoculated with 0.4 ml of a fresh overnight culture of the test organism Corynebacterium xerosis (C. xerosis 7711). The culture vessel was shaken at 30° C. and 250 rpm until a cell density of 10^5 to 10^6 cells/ml had been reached. The test substances were weighed out and in each case dissolved in 2.5 ml AC medium with brief heating to 60° C. The test solutions obtained in this way were then added to 2.5 ml bacterial suspension in each case and the mixtures were incubated for 20, 60 and 180 min maintaining the growth conditions. 100 μl of the incubated test solutions were then taken and the bacterial titre determined by plating-out on nutrient medium.

[5] = test system: Staphylococcus epidermidis, Corynebacterium xerosis, Brevibacterium epidermidis; assay: MIC determination, agar dilution method, summary over the three test organisms; conditions: summary of Table 4 over all three test organisms
Method: To prepare various test concentrations 2.6 ml of a 3.3% stock solution (3.3 g 1,2-decanediol or comparison substance in 100 ml ethanol (96% in H2O; Merck, Cat. no. 1.00971)) was used at the starting material in each case. Further test concentrations (diluted sample) in the form of a geometric dilution series were prepared by progressive 2:1 dilution with ethanol (96%; Merck, Cat. no. 1.00971). Determination of the antimicrobial action of 1,2-decanediol (or of a comparison substance) was carried out with the aid of the agar dilution method based on DIN 58 940/ICS and DIN 58 944/ICS. […] The inoculated plates were incubated under the conditions given in Table 3 and were then assessed. […] Minimum, barely visible growth or a few small individual colonies were assessed as inhibition. Suspensions of the microorganisms described above were incubated in accordance with the general test conditions described under 1. and the MIC values of 1,2-decanediol were determined (see Table 4). For reference purposes the MIC values for 1,2-octanediol were also determined.

Row | Compound | MIC [1] [µg/mL] | MIC [2] [µg/mL] | MIC [3] [µg/mL] | effectiveness in growth curve (bacterial titre) [4] | MIC values (over the three test organisms) [5] | MIC [5] [µg/mL]
1 | CCCCCCCCC(O)CO (stereo not drawn) [1,2-Decanediol, 1,2-decanediol] | 450 (≈ 2.58 mM) | 225 (≈ 1.29 mM) | 225 (≈ 1.29 mM) | by far the greatest effectiveness of the substances tested | distinctly lower | 
2 | CCCCCCC(O)CO (stereo not drawn) [1,2-Octanediol, 1,2-octanediol, reference compound] | 3600 (≈ 24.6 mM) | 3600 (≈ 24.6 mM) | 1800 (≈ 12.3 mM) |  |  | 1800 to 3600 (≈ 12.3 to 24.6 mM)
